Key:
[1] = Hyperalgesic priming model (plantar incision then intraplantar PGE2), tactile thresholds by von Frey filaments; type: in vivo, mouse
Excerpt: The hyperalgesic priming model was utilized in the experiments because it is well-characterized and used to study the neuroplasticity underlying persistent pain sensitization and the transition of acute pain to chronic pain [13-17]. As shown at the top FIG. 2, the model is comprised of three phases. 1) The acute phase, also called the induction phase, causes transient tactile hypersensitivity in response to various pro-nociceptive compounds and resolves within a week. The hindpaw plantar incision model was used for the acute phase, which comprises incision of the skin, the underlying fascia, and the plantar flexor digitorum brevis muscle as the initial injury. This model was selected since it lacks injury to major peripheral nerves and typically resolves within a week. 2) The primed phase follows the acute phase. The animals are not hypersensitive and this phase can last for at least 3 weeks.
In this experiment, mice received plantar incision and their tactile thresholds were determined using von Frey filaments. Mice were placed in small cages with a mesh floor individually. Calibrated monofilaments of differing forces are applied perpendicularly to the hind paw. Withdraws, licking or flinching of the paw in response to the filament is considered a positive response. The results are provided in FIG. 2A where “Threshold (grams)” on the y-axis represents the amount of force required for the mice to withdraw the hindpaw before (baseline, BL) and after the incision. Reduced withdrawal threshold indicates increased pain.
In this experiment, the same mice used in the acute phase were allowed to recover and on Day 10 received intraplantar PGE2. The results are provided in FIG. 2B where “Threshold (grams)” on the y-axis represents the amount of force required for the mice to withdraw their hindpaw which is an indication of tactile hypersensitivity and pain. […] 1, 2, 3 and 4 days post-PGE2 injection, *** P<0.001. […] PGE2 injection caused profound allodynia in mice that had plantar incision.
In this experiment, mice were injected with 1 μg of teRNA or teRNAmm intrathecally (IT). The next day L4-6 DRGs were dissected and acutely dissociated for extracellular flux analysis. One day post teRNA and teRNA mm injection L4-6 DRGs were dissected and proteins were extracted for western blot analysis. In an independent experiment, mice received plantar incision and were allowed to recover. On day 10 baseline measurements were performed, which was followed by intraplantar injection of PGE2. Allodynia testing was preformed form on days 14, 15, 21 and 24. Intrathecal teRNA or teRNAmm (1 μg) were injected on day 14 following the allodynia testing. […]

[2] = Bortezomib-induced CIPN (neuropathic pain) mouse model, tactile thresholds / allodynia; type: in vivo
Procedure: teRNA was administered to mice which have developed neuropathic pain due to bortezomib treatment. In this experiment, mice were treated with intraperitoneal 0.2 mg/kg of bortezomib (Millipore Sigma, Cat #5.04314.0001) for 5 consecutive days for a total dose of 1 mg/kg. The vehicle group received intraperitoneal saline for 5 consecutive days. The mice that receive bortezomib develop profound allodynia. The efficacy of teRNA for treating and preventing the development of bortezomib-induced neuropathic pain was explored.
Treatment with bortezomib (bort) from day 0-4 (black arrow) led to the development of severe neuropathic pain. Baseline thresholds were measured on day 0 and allodynia was tested on days 14, 15, 17 and 21.
In a second experiment, mice were treated with either saline or bortezomib on days 0-4 (intraperitoneal 0.2 mg/kg of bortezomib for 5 consecutive days for a total dose of 1 mg/kg). On day 7 mice that received bortezomib developed profound neuropathic pain.
To determine if teRNA can prevent the development of chemotherapy-induced neuropathic pain, mice were co-treated with IT teRNA (days 0, 2 and 4) and intraperitoneal (IP) bortezomib (days 0-4) (intraperitoneal 0.2 mg/kg of bortezomib for 5 consecutive days for a total dose of 1 mg/kg).

[3] = system: L4-6 DRG cultures (sensory neurons); experiment: Extracellular flux analysis (Seahorse XFp): glutamine oxidation-dependent oxygen consumption rate of dissociated L4-6 DRG cultures from IT-treated mice; type: cell-based, mouse; conditions: glutamine 2 mM; for increase in oxygen consumption rate (OCR) in response to glutamine addition: DRG cultures from mice given 1 μg IT one day earlier, baseline OCR subtracted; for time over which the glutamine-induced OCR increase lasts: DRG cultures from mice given 1 μg IT
Procedure: In this experiment, mice were injected with 1 μg of teRNA or teRNAmm intrathecally (IT). The next day L4-6 DRGs were dissected and acutely dissociated for extracellular flux analysis. One day post teRNA and teRNA mm injection L4-6 DRGs were dissected and proteins were extracted for western blot analysis. In an independent experiment, mice received plantar incision and were allowed to recover. On day 10 baseline measurements were performed, which was followed by intraplantar injection of PGE2. Allodynia testing was preformed form on days 14, 15, 21 and 24. Intrathecal teRNA or teRNAmm (1 μg) were injected on day 14 following the allodynia testing.
In this experiment, L4-6 DRGs were dissected form naïve, teRNAmm and teRNA treated mice. Lumbar 4-6 DRGs were placed in Hank's Buffered Salt Solution (HBSS, Thermo Fisher, Cat #14170112) on ice. The ganglia were dissociated enzymatically with collagenase A (1 mg/ml, 25 min, Millipore Sigma, Cat #10103578001) and collagenase D (1 mg/ml, Millipore Sigma, Cat #11088858001) with papain (30 U/ml, Millipore Sigma, Cat #10108014001) for 20 min at 37° C. To eliminate debris and large diameter sensory neurons, 70 μm (Thermo Fisher, Cat #087712) cell strainers were used. The dissociated cells were resuspended in DMEM/F12 (Thermo Fisher, Cat #10565042) containing 1× pen-strep (Thermo Fisher, Cat #15070063) and 10% fetal bovine serum (Millipore Sigma, Cat #F2442). The cells were plated in Seahorse XFp Cell Culture Miniplate (Agilent, Cat #103025-100). These cultures were incubated overnight at 37° C. in a humidified 95% air/5% CO2 incubator. The metabolic changes were characterized by analyzing the glycolysis and oxidative phosphorylation rates of sensory neurons using extracellular flux analyzer, Seahorse XFp (Agilent). Dissociated L4-6 primary afferents were incubated in DMEM (Millipore Sigma, Cat #D5030) without glutamine, pyruvate or glucose, Baseline oxygen consumption rate (OCR) measurements were followed by the addition of glutamine (2 mM). The baseline OCR values were subtracted from each of the other values to determine glutamine oxidation-dependent OCR.

ASCT2 = experiment: Western blot of ASCT2 protein in L4-6 DRGs after intrathecal injection; type: in vivo, mouse; conditions: IT 1 μg, DRGs dissected 24 hrs post injection; versus teRNAmm control
Procedure: Western blot (WB) analyses were performed to examine changes in metabolic genes that are known to regulate pyruvate and glutamine oxidation. In these experiments, lumbar 4-6 dorsal root ganglia (L4-6 DRGs) which innervate the hindpaw were dissected on Day 1, 9 and 14 post-plantar incisions (as described above). Protein was extracted from the L4-6 DRGs in lysis buffer (50 mM Tris HCl, 1% Triton X-100, 150 mM NaCl, and 1 mM EDTA at pH 7.4) containing protease and phosphatase inhibitor mixtures with an ultrasonicator on ice, and cleared of cellular debris by centrifugation at 14,000 relative centrifugal force for 15 min at 4° C. Fifteen micrograms of protein per well were loaded and separated by standard 7.5% or 10% SDS-PAGE. Proteins were transferred to Immobilon-P membranes (Millipore Sigma, Cat #IPVH00010) and then blocked with 5% dry milk for 3 h at room temperature. The blots were incubated with primary antibody overnight at 4° C. and detected the following day with donkey anti-rabbit or goat anti-mouse antibody conjugated to horseradish peroxidase (1:10,000, Jackson Immunoresearch, Cat #711-036-152, Cat #115-036-062). Signal was detected by enhanced chemiluminescence on films. For assessment of phospho-proteins, membranes were stripped and reprobed for total-protein of interest for normalization. Densitometric analyses were done using UN-SCAN-IT 7.1 software (Silk Scientific Corp.). […]

[4] = single IT 1 μg, 14 days post plantar incision (4 days post PGE2)
[5] = IT 1 μg on days 7, 9 and 11, bortezomib IP 0.2 mg/kg days 0-4
[6] = single IT 1 μg on day 14, bortezomib IP 0.2 mg/kg days 0-4

In the case of “5′-CAUACUACGCCGUAGC-3′ (2'-O-methyl modifications, further chemistry not given here) [teRNAmm, reference compound]”, the “effect on tactile hypersensitivity / tactile thresholds, incision group” value [1, 4] is reported as “did not display any change in their tactile thresholds”, the “effect on existing bortezomib-induced neuropathic pain, repeated treatment” value [2, 5] is reported as “did not impact the bortezomib-induced neuropathic pain” and the “effect on bortezomib-induced neuropathic pain / tactile thresholds, single treatment” value [2, 6] is reported as “did not impact the tactile thresholds”. For the same substance, the “increase in oxygen consumption rate (OCR) in response to glutamine addition” value [3] was 10% and the “time over which the glutamine-induced OCR increase lasts” value [3] was at most 30 min.
With “5′-CAUAGAUCCGGGAUGC-3′ (2'-O-methyl modifications, further chemistry not given here) [teRNA]” the “effect on tactile thresholds of the control group (no incision)” value ([1]; single IT 1 μg on day 14) was “did not affect the tactile thresholds”, the “duration of alleviation of tactile hypersensitivity, incision group” value [1, 4] was “at least 7 days” and the “effect on tactile hypersensitivity / tactile thresholds, incision group” value [1, 4] was “alleviated tactile hypersensitivity”. For the same substance, the “ASCT2 protein in L4-6 DRGs” value (ASCT2) was “robust increase”, the “duration of pain relief, repeated treatment” value [2, 5] was “at least 2 weeks” and the “effect on existing bortezomib-induced neuropathic pain, repeated treatment” value [2, 5] was “prolonged pain relief”. For the same substance, the “prevention of development of bortezomib-induced neuropathic pain, co-treatment” value ([2]; IT on days 0, 2 and 4 with IP bortezomib 0.2 mg/kg days 0-4) was “prevented the development of bortezomib-induced neuropathic pain”, the “time post the initiation of bortezomib treatment up to which existing neuropathic pain was alleviated” value ([2]; IT on days 7, 9 and 11, bortezomib days 0-4) was “at least 21 days” and the “duration of alleviation of bortezomib-induced neuropathic pain, single treatment” value [2, 6] was “several days”. The “effect on bortezomib-induced neuropathic pain / tactile thresholds, single treatment” value [2, 6] was “reversed the bortezomib-induced neuropathic pain”, the “increase in oxygen consumption rate (OCR) in response to glutamine addition” value [3] was “around 20%” and the “time over which the glutamine-induced OCR increase lasts” value [3] was “at least 30 mins”.

Source: patent publication US12128062B2, “Methods for targeting pain directed at metabolic pathways” (UNIVERSITY OF MARYLAND, BALTIMORE, priority 2018, dated 2024)
